Reference: US20220370440A1 (Lead Discovery Center GmbH, priority 2018, published 2022)

What was measured:
[1] = Metabolic stability in mouse liver microsomes without cofactor NADPH; type: in vitro ADME; conditions: 3 μM test compound, mouse liver microsomes, without NADPH, 50 min, 37° C., LC-MS/MS
Procedure, shortened: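 Test compound (3 μM) was incubated with mouse liver microsomes without NADPH at 37° C. Depletion was followed by LC-MS/MS over time up to 50 min.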

[2] = target: Her2 Exon 20 INSYVMA Ba/F3 (Homo sapiens, UniProt P04626, DUP772-775, cells depend on it); assay: Her2 Exon 20 INSYVMA Ba/F3 CellTiter-Glo; type: cell-based; conditions: CellTiter-Glo, 72 h, read-out: Her2 Exon 20 INSYVMA Ba/F3 CTG IC50
Procedure, shortened: (§1)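 Ba/F3 cells were seeded, left 24 h at 37 °C/5% CO2, then exposed to compound dilutions in DMSO for 72 h. Viability was read as ATP luminescence (CellTiter-Glo) and IC50 fitted from dose–response curves; DMSO and 10 μM staurosporine defined the controls, and plates needed Z′ ≥0.5.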

A431 = A431 CellTiter-Glo; type: cell-based; conditions: Homo sapiens, A-431; 72 h compound incubation; read-out: A431 CTG IC50
Procedure, shortened: (§2)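 Cells seeded, after 24 h at 37° C/5% CO2 treated with compounds in DMSO at various concentrations for 72 h. Viability from ATP luminescence (CellTiter-Glo); DMSO and 10 μM Staurosporine as controls; IC50 from dose-response fit, plates accepted at Z′ ≥0.5.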

[3] = target: EGFR Exon 20 INSNPH Ba/F3 (Homo sapiens, UniProt P00533, DUP771-773, cells depend on it); assay: EGFR Exon 20 INSNPH Ba/F3 CellTiter-Glo; type: cell-based; conditions: CellTiter-Glo, 72 h, read-out: EGFR Exon 20 INSNPH Ba/F3 CTG IC50
Procedure, shortened: as §1

EGFR wt = EGFR wt (Homo sapiens, UniProt P00533); assay: EGFR wt Lance assay; type: biochemical
Protocol: (§3) Inhibition is indicated as […] [nM] (“−”=not measured). Compounds having an activity designated as “A” provided an IC50≤100 nM; compounds having an activity designated as “B” provided an 100 nM<IC50≤500 nM; compounds having an activity designated as “C” provided an 500 nM<IC50≤1000 nM; compounds having an activity designated as “D” provided an 1000 nM<IC50≤100000 nM; and compounds having an activity designated as “E” provided an IC50>10000 nM.

HER2 INS YVMA = target: T1, HER2 INS YVMA (Homo sapiens, UniProt P04626, INS775YVMA); assay: Lance Kinase Activity Assay, HER2 INS YVMA (Her2 Exon 20 INSYVMA Lance); type: biochemical; conditions: biochemical Lance assay
T1 construct: purchased DPF
Procedure, shortened: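 Kinase phosphorylates a ULight-labelled peptide substrate; Eu anti-phospho antibody gives TR-FRET (ex 340 nm, em 665/615 nm). Compounds in 1:3 serial dilution over 8 steps, reaction started with ATP, 1 h at room temperature, stopped with EDTA-containing detection mix for 1 h. IC50 from sigmoidal dose-response curves.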

EGFR T790ML858R = EGFR T790ML858R (Homo sapiens, UniProt P00533, L858R/T790M); assay: EGFR T790ML858R Lance assay; type: biochemical
Protocol: as §3

H1975 = H1975 CellTiter-Glo; type: cell-based; conditions: Homo sapiens, NCI-H1975; 72 h compound incubation; read-out: H1975 CTG IC50
Procedure, shortened: as §2

Sequence of Her2 Exon 20 INSYVMA Ba/F3 (P04626 with tags, fused parts or gaps DUP772-775): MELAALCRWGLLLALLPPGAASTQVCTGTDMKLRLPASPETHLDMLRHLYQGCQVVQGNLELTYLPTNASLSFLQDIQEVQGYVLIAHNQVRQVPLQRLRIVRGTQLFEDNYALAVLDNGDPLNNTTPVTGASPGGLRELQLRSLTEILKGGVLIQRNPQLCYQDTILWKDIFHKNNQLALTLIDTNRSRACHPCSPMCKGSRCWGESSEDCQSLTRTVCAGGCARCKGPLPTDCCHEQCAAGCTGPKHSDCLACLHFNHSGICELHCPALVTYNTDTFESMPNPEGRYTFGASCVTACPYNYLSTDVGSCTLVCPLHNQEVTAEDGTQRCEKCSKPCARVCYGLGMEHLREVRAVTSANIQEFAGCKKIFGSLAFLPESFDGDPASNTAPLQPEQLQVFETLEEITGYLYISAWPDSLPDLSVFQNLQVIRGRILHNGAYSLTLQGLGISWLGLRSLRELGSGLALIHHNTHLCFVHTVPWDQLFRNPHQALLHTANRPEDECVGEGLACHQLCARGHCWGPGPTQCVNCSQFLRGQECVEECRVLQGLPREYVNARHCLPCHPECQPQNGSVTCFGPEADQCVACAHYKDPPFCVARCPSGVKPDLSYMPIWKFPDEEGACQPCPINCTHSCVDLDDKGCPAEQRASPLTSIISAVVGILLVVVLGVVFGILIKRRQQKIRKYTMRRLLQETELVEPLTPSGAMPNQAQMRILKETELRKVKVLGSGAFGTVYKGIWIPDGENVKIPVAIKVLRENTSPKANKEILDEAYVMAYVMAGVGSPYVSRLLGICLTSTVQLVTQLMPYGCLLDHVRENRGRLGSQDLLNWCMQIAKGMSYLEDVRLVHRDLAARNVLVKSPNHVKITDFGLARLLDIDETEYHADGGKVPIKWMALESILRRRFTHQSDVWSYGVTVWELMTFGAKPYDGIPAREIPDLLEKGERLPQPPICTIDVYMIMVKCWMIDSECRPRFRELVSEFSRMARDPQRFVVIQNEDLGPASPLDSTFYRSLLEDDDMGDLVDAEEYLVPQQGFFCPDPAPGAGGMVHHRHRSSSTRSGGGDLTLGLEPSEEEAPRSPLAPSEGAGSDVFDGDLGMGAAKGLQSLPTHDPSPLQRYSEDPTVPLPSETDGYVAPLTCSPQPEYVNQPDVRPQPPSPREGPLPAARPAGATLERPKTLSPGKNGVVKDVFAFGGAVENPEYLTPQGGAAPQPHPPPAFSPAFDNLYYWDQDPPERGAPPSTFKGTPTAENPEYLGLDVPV
Sequence of EGFR T790ML858R (P00533 25-1210 T790M/L858R): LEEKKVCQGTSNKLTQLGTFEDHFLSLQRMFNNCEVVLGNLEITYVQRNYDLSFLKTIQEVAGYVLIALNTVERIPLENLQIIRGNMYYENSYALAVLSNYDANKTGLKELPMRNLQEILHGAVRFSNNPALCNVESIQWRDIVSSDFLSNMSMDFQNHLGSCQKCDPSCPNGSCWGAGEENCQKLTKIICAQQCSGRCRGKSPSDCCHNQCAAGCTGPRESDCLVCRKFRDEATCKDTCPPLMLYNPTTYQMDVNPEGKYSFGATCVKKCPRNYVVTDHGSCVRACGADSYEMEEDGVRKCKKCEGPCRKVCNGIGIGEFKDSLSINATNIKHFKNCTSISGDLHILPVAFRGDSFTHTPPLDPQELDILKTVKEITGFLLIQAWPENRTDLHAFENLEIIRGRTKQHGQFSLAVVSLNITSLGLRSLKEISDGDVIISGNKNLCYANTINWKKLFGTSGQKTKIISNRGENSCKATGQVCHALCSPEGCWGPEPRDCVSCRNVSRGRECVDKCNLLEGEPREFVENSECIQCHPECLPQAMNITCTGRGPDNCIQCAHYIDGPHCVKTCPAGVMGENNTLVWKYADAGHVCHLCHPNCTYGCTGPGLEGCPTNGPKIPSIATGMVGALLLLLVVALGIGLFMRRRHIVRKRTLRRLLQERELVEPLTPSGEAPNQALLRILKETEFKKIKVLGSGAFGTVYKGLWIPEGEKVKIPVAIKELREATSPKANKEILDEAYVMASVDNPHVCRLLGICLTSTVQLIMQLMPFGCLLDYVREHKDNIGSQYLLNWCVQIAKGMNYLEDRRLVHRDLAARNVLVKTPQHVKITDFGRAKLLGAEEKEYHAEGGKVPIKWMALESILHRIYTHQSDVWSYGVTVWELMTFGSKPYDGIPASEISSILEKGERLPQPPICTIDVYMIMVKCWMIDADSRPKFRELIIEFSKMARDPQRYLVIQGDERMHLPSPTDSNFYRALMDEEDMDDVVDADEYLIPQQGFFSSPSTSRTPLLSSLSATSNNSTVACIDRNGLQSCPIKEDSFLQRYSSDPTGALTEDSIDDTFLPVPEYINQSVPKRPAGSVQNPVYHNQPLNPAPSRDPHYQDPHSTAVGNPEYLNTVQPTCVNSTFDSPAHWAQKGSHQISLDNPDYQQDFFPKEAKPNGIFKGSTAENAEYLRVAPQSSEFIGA
T1 sequence (P04626 with tags, fused parts or gaps INS775YVMA): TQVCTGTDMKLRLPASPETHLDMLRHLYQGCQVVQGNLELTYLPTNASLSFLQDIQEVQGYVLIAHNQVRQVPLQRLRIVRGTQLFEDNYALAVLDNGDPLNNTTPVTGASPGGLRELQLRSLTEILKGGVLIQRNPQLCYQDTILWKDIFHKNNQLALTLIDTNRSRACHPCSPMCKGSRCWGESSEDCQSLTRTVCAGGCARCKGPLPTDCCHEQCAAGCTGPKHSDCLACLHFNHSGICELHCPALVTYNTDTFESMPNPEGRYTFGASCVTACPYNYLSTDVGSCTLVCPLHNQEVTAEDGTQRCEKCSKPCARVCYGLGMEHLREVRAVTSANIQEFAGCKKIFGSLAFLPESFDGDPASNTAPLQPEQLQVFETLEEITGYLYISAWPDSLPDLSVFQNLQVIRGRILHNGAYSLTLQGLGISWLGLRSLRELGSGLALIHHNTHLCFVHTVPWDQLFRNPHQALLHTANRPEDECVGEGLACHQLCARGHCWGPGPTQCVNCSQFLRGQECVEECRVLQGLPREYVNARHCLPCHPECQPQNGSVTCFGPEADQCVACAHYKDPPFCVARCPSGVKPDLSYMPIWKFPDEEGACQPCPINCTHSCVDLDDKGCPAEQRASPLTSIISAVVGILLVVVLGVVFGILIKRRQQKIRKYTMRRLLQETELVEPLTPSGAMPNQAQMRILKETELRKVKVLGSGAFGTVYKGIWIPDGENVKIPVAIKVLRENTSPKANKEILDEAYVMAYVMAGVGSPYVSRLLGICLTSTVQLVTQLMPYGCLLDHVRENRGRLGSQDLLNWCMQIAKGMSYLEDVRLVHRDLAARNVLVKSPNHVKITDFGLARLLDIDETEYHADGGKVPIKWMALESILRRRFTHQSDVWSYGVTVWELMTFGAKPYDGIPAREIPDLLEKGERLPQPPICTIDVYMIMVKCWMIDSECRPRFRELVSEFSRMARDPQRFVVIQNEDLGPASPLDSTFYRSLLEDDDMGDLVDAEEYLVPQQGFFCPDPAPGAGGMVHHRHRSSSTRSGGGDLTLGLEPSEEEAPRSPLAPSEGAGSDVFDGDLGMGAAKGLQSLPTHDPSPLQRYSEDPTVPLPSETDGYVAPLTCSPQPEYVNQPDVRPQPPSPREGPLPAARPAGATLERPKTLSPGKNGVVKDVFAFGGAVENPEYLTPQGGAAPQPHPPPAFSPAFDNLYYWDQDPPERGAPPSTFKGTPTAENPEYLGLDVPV
Sequence of EGFR wt (P00533 25-1210): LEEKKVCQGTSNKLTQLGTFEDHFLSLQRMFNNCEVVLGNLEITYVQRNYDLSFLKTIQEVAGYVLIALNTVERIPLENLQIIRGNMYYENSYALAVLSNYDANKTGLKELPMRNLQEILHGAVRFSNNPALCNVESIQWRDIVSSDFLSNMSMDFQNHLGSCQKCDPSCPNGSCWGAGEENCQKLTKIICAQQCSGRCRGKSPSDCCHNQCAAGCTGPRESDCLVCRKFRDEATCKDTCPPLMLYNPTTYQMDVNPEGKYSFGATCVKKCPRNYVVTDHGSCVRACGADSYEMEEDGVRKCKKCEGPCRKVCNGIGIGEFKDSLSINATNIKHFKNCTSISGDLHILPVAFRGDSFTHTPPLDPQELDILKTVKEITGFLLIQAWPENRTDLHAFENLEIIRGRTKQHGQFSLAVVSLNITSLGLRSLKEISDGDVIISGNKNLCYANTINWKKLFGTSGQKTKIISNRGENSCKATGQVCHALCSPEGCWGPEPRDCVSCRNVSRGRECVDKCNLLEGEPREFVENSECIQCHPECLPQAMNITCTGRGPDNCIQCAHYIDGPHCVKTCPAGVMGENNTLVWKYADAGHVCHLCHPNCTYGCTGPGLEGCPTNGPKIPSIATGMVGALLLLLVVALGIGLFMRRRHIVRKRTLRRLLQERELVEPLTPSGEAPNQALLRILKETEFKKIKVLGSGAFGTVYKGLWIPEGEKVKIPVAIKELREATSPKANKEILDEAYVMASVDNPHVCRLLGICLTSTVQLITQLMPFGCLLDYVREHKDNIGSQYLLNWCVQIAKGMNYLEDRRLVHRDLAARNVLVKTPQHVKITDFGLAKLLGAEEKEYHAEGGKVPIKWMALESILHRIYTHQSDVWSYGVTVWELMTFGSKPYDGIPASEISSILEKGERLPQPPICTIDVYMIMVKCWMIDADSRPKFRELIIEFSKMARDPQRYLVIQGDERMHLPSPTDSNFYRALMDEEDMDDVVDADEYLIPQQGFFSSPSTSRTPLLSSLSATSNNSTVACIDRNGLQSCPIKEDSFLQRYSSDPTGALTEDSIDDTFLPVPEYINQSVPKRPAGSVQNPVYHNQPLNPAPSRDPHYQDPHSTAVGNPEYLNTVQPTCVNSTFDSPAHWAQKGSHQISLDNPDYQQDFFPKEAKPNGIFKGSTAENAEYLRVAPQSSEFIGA

| SMILES | Stability in presence of mouse liver microsomes without cofactor NADPH [% remaining after 50 min] [1] [% remaining after 50 min] | GI50 [2] [nM] | IC50 (A431) [nM] | GI50 [3] [nM] | IC50 (EGFR wt) [nM] | IC50 (HER2 INS YVMA) [nM] | IC50 (EGFR T790ML858R) [nM] | IC50 (H1975) [nM] |
| --- | --- | --- | --- | --- | --- | --- | --- | --- |
| C=CC(=O)Nc1cc(-c2c(-c3ccc(N4CCN(C)CC4)cc3)[nH]c3ncc(C(=O)O)cc23)ccc1C [Example 116, 3-(3-acrylamido-4-methylphenyl)-2-(4-(4-methylpiperazin-1-yl)phenyl)-1H-pyrrolo[2,3-b]pyridine-5-carboxylic acid 2,2,2-trifluoroacetate] | 92 | > 10000 | > 10000 | > 10000 | ≤ 100 | ≤ 100 | ≤ 100 | > 10000 |
| C=CC(=O)Nc1cc(-c2c(-c3ccc(N4CCN(C)CC4)cc3)[nH]c3ncc(C(=O)NC(C)C)cc23)ccc1C [Example 119, 3-(3-acrylamido-4-methylphenyl)-N-isopropyl-2-(4-(4-methylpiperazin-1-yl)phenyl)-1H-pyrrolo[2,3-b]pyridine-5-carboxamide] | >99 | 100 to 500 | 500 to 1000 | 100 to 500 | ≤ 100 | ≤ 100 | ≤ 100 | 500 to 1000 |
| C=CC(=O)Nc1cc(-c2c(-c3ccc(N4CCN(C)CC4)cc3)[nH]c3ncc(C(=O)NC4CCCCC4)cc23)ccc1C [Example 120, 3-(3-acrylamido-4-methylphenyl)-N-cyclohexyl-2-(4-(4-methylpiperazin-1-yl)phenyl)-1H-pyrrolo[2,3-b]pyridine-5-carboxamide] | >99 | 100 to 500 | 100 to 500 | 100 to 500 | ≤ 100 | ≤ 100 | ≤ 100 | 100 to 500 |
| C=CC(=O)Nc1cc(-c2c(-c3ccc(N4CCN(C)CC4)cc3)[nH]c3ncc(C(=O)OC)cc23)ccc1C [Example 134, Methyl 3-(3-acrylamido-4-methylphenyl)-2-(4-(4-methylpiperazin-1-yl)phenyl)-1H-pyrrolo[2,3-b]pyridine-5-carboxylate 2,2,2-trifluoroacetate] | >99 | 100 to 500 | 1000 to 100000 | 100 to 500 | ≤ 100 | ≤ 100 | ≤ 100 | 100 to 500 |
| C=CC(=O)Nc1cc(-c2c(-c3ccc(N4CCN(C)CC4)cc3)[nH]c3ncc(C(=O)OCC)cc23)ccc1C [Example 135, ethyl 3-(3-acrylamido-4-methylphenyl)-2-(4-(4-methylpiperazin-1-yl)phenyl)-1H-pyrrolo[2,3-b]pyridine-5-carboxylate] | 95 | 100 to 500 | 1000 to 100000 | 100 to 500 | ≤ 100 | ≤ 100 | ≤ 100 | ≤ 100 |
| C=CC(=O)Nc1cc(-c2c(-c3ccc(N4CCN(C)CC4)cc3)[nH]c3ncc(C(=O)OC4CC4)cc23)ccc1C [Example 138, cyclopropyl 3-(3-acrylamido-4-methylphenyl)-2-(4-(4-methylpiperazin-1-yl)phenyl)-1H-pyrrolo[2,3-b]pyridine-5-carboxylate] | >99 | 100 to 500 | 1000 to 100000 | 100 to 500 | ≤ 100 | ≤ 100 | ≤ 100 | ≤ 100 |
| Cc1ccc(-c2c(-c3ccc(N4CCN(C)CC4)cc3)[nH]c3nccc(Cl)c23)cc1NC(=O)CCl [Example 146, 2-chloro-N-(5-(4-chloro-2-(4-(4-methylpiperazin-1-yl)phenyl)-1H-pyrrolo[2,3-b]pyridin-3-yl)-2-methylphenyl)acetamide 2,2,2-trifluoroacetate] | 9 | 100 to 500 | 100 to 500 | 100 to 500 | ≤ 100 | ≤ 100 | ≤ 100 | ≤ 100 |
| C=CC(=O)Nc1cc(-c2c(-c3ccc(N(C)CCN(C)C)cc3)[nH]c3ncc(C(=O)OC(C)C)cc23)ccc1C [Example 154, isopropyl 3-(3-acrylamido-4-methylphenyl)-2-(4-((2-(dimethylamino)ethyl)(methyl)amino)phenyl)-1H-pyrrolo[2,3-b]pyridine-5-carboxylate 2,2,2-trifluoroacetate] | >99 | 100 to 500 | 1000 to 100000 | 100 to 500 | ≤ 100 | ≤ 100 | ≤ 100 | 100 to 500 |

Next, values leading:

| Stability in presence of mouse liver microsomes without cofactor NADPH [% remaining after 50 min] [1] [% remaining after 50 min] | GI50 [2] [nM] | IC50 (A431) [nM] | GI50 [3] [nM] | IC50 (EGFR wt) [nM] | IC50 (HER2 INS YVMA) [nM] | IC50 (EGFR T790ML858R) [nM] | IC50 (H1975) [nM] | SMILES |
| --- | --- | --- | --- | --- | --- | --- | --- | --- |
| 93 | 100 to 500 | 500 to 1000 | 100 to 500 | ≤ 100 | ≤ 100 | ≤ 100 | ≤ 100 | C=CC(=O)N1CCc2ccc(-c3c(-c4ccc(N5CCN(C)CC5)cc4)[nH]c4nccc(OC)c34)cc21 [Example 110, 1-(6-(4-methoxy-2-(4-(4-methylpiperazin-1-yl)phenyl)-1H-pyrrolo[2,3-b]pyridin-3-yl)indolin-1-yl)prop-2-en-1-one] |
| 90 | ≤ 100 | 100 to 500 | ≤ 100 | ≤ 100 | ≤ 100 | ≤ 100 | ≤ 100 | C=CC(=O)N1CCc2ccc(-c3c(-c4ccnc(N5CCN(C)CC5)c4)[nH]c4nccc(OC)c34)cc21 [Example 111, 1-(6-(4-methoxy-2-(2-(4-methylpiperazin-1-yl)pyridin-4-yl)-1H-pyrrolo[2,3-b]pyridin-3-yl)indolin-1-yl)prop-2-en-1-one] |
| 79 | 500 to 1000 | 1000 to 100000 | 500 to 1000 | ≤ 100 | ≤ 100 | ≤ 100 | 100 to 500 | C=CC(=O)N1CCc2ccc(-c3c(-c4ccc(OCCN5CCCC5)cc4)[nH]c4nccc(OC)c34)cc21 [Example 112, 1-(6-(4-methoxy-2-(4-(2-(pyrrolidin-1-yl)ethoxy)phenyl)-1H-pyrrolo[2,3-b]pyridin-3-yl)indolin-1-yl)prop-2-en-1-one] |
| 96 | ≤ 100 | 100 to 500 | ≤ 100 | ≤ 100 | ≤ 100 | ≤ 100 | ≤ 100 | C=CC(=O)N1CCc2ccc(-c3c(-c4ccc(CN5CCN(C)CC5)cc4)[nH]c4nccc(OC)c34)cc21 [Example 113, 1-(6-(4-methoxy-2-(4-((4-methylpiperazin-1-yl)methyl)phenyl)-1H-pyrrolo[2,3-b]pyridin-3-yl)indolin-1-yl)prop-2-en-1-one] |
| >99 | 100 to 500 | 500 to 1000 | 100 to 500 | ≤ 100 | ≤ 100 | ≤ 100 | ≤ 100 | C=CC(=O)N1CCc2ccc(-c3c(-c4ccc(N5CCN(C)CC5)cc4)[nH]c4nccc(OC(C)C)c34)cc21 [Example 115, 1-(6-(4-isopropoxy-2-(4-(4-methylpiperazin-1-yl)phenyl)-1H-pyrrolo[2,3-b]pyridin-3-yl)indolin-1-yl)prop-2-en-1-one 2,2,2-trifluoroacetate] |
| >99 | 500 to 1000 | 1000 to 100000 | 100 to 500 | ≤ 100 | ≤ 100 | ≤ 100 | ≤ 100 | C=CC(=O)Nc1cc(-c2c(-c3ccc(N4CCN(C)CC4)cc3)[nH]c3ncc(Cl)c(C)c23)ccc1C [Example 155] |
